According to US7338799B2 (Vanderbilt University, priority 2001, dated 2008):
Where two headings read alike, the source gives them in different places.

What was measured:
hCHT [1] = biological target: T1, hCHT (Homo sapiens, UniProt Q9GZV3); assay: [3H]HC-3 radioligand binding in membrane fractions of hCHT transfected COS-7 cells; settings: for Ki: 10 nM [3H]HC-3, hCHT transfected COS-7 cell membranes, read-out: Ki in inhibiting [3H]HC-3 binding
T1 construct: The hCHT cDNA encodes a protein of 580 amino acids; expressed in transfected cells; host or cells: COS-7 (transient, FuGene 6, pcDNA3)
T1 sequence (Q9GZV3 1-580): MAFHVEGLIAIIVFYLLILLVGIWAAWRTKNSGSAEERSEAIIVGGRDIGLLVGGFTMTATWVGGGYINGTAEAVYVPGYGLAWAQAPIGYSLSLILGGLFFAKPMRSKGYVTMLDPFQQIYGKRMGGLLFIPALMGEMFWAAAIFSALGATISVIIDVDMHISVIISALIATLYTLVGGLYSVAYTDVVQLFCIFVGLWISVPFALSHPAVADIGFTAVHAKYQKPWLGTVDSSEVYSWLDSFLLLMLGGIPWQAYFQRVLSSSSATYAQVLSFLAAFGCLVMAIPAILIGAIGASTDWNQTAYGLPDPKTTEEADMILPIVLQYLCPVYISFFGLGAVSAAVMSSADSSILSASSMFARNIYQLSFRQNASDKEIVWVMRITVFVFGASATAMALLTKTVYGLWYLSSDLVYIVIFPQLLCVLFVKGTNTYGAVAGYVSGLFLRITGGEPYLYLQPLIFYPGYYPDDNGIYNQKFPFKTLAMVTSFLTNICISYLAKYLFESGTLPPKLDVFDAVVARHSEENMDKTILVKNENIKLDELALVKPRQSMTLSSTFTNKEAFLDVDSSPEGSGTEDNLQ
Protocol: COS-7 cells were transfected with a pcDNA3 vector containing hCHT cDNA using the FuGene 6 transfection reagent (Roche Diagnostics) following the manufacturer's protocols. Briefly, COS-7 cells were cultured in Dulbecco's modified Eagles' medium (DMEM) supplemented with 10% fetal bovine serum (Hyclone), 100 μg/ml of penicillin and streptomycin at a density of 3-4 million cells in 150 mm culture dishes or 5×10^4 cells per well in 24 well dishes (Falcon). After 24 hr, cells were transfected and 48 hr later, the cells were harvested and processed for membrane binding and whole cell or vesicle transport assays.
Monolayers of hCHT transfected COS-7 cells were washed with 30 ml of HTE buffer and harvested in 10 ml of homogenization buffer (0.32 M sucrose in HTE buffer). Cells were homogenized at 20,000 rpm for 25 sec using a Polytron tissue homogenizer (Brinkman). The homogenate was centrifuged at 100,000×g for 45 min at 4° C. The resulting pellet was suspended in 2 ml of HTE buffer, assayed for protein content (Bradford method; BioRad) and 50 μg of the membrane suspension (1 μg/μl) was transferred to each tube in triplicate. Unless otherwise indicated, all binding assays were performed in the presence of 150 mM NaCl in HTE buffer. Assays were initiated by the addition of [^3H]HC-3 (127 Ci per mmol; NEN Life Science Products, 10 nM final concentration). After a 1 hr incubation at room temperature, membranes were rapidly filtered through glass fiber GF/B filters (Brandel) soaked in 0.3% polyethylenimine (Sigma) in HTE buffer and accumulated radioactivity was quantified using liquid scintillation spectrometry (Packard). To test the ion dependence of hCHT binding activity, Na^+ was replaced in the assay buffer with equimolar concentrations of Li^+ whereas Cl^− was replaced with equimolar concentrations of isethionate. Non-specific binding was quantified by measuring [^3H] […] Data for binding and transport assays (see below) were analyzed using nonlinear least squares curve fitting and Scatchard transformations (Kaleidagraph, Abelbeck).

hCHT [2] = biological target: T1, hCHT; assay: [3H]choline transport in resealed membrane vesicles from hCHT transfected COS-7 cells; format: biochemical
Protocol: To assay CHT activity in resealed membrane vesicles from hCHT-transfected mammalian cells, the inventors transiently transfected COS-7 cells with hCHT as described herein above and prepared membrane fractions as described for binding assays. After obtaining the membrane fractions, resealed membrane vesicles were prepared as described by Fisher et al., 1992 (Fishe et al., 1992) with slight modifications. The membrane pellets were resuspended in 2 ml of HTE buffer (˜2 μg/μl) and the suspension was rotated gently at 4° C. for 45 min. Membrane vesicle suspensions were centrifuged (27,000×g) for 20 min at 4° C. and the resulting pellet suspended in 2 ml of Na^+ and Cl^− free HTE buffer. Protein content of the suspension was determined (Bradford; BioRad) and 50 μg of the vesicle suspension (1 μg/μl) was transferred to each tube for triplicate assays. […] After a 5 min incubation at room temperature, vesicles were rapidly filtered through Whatman GF/B filters soaked in 0.3% polyethylenimine in HTE buffer and the accumulated radioactivity quantified as described for binding assays. […] In all experiments, non-specific uptake was quantified by determining uptake in the presence of 1 μM HC-3 and subtracted from the total uptake to yield specific transport.

mCHT [3] = biological target: T2, mCHT (Mus musculus, UniProt Q8BGY9, Q119K/Q86H); assay: [3H]HC-3 binding in membrane fractions of mCHT transfected COS-7 cells; settings: for Ki: mCHT transfected COS-7 cell membrane, read-out: Ki in inhibiting [3H]HC-3 binding
T2 construct: expressed in transfected cells; host or cells: COS-7 (transient, pcDNA3)
T2 sequence (Q8BGY9 with tags, fused parts or gaps Q86H/Q119K): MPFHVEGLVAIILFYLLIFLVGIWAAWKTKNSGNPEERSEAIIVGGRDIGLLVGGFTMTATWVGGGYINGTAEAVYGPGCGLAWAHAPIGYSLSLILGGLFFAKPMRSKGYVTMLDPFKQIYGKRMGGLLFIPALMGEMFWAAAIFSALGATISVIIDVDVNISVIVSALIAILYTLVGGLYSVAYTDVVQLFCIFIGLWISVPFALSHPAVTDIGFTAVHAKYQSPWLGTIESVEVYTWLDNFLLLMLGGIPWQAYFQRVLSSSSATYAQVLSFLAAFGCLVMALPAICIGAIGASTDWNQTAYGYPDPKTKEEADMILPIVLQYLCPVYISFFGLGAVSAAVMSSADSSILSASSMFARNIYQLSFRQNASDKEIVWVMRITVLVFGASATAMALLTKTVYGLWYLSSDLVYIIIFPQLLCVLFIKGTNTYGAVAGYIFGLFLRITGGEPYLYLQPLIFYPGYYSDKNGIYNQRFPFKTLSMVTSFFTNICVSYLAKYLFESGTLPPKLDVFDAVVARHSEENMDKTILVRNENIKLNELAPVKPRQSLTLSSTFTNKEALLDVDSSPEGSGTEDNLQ

mCHT [4] = biological target: T2, mCHT; assay: choline uptake in resealed membrane vesicles from mCHT transfected COS-7 cells; format: biochemical; settings: for IC50: resealed membrane vesicles, mCHT
[5] = substrate: C[N+](C)(C)CCO; assay: cells, lysate or membranes named

Work on `CC(=O)OCC[N+](C)(C)C` [ACh, acetylcholine] yielded a Ki (hCHT [1]; ACh in the presence of 10 μM physostigmine) of 433000 nM, a Ki (hCHT [2]) of 570 nM and a Ki (mCHT [3]; ACh in the presence of physostigmine) of 433000 nM.

With `C[N+]1(C)CCOC(O)(c2ccc(-c3ccc(C4(O)C[N+](C)(C)CCO4)cc3)cc2)C1.[Br-].[Br-]` (stereo not drawn) [HC-3, hemicholinium-3] the Ki (hCHT [1]) was 4 nM, the “Hill coefficient of [3H]HC-3 binding” value (hCHT [1]; single site kinetics) was 0.99 and the “effect of addition of HC-3 on [3H]choline uptake” value (hCHT [2]; hCHT vesicles against vector transfected controls, data not shown) was “reduced [^3H]choline uptake to levels seen in vector transfected COS-7 membrane vesicles”. For the same molecule, the Ki (hCHT [2]; read-out: Ki for inhibition of [3H]choline uptake, resealed membrane vesicles, hCHT, 20 nM [3H]choline) was 5 nM, the “effect on choline uptake” value (mCHT [4]; 1 μM HC-3, mCHT vesicles against vector transfected) was “reduced choline uptake to levels seen in vector transfected COS-7 membrane vesicles” and the IC50 (mCHT [4]; read-out: IC50 for inhibition of mCHT-mediated choline uptake) was 5 nM. The Kd (mCHT [3]; Scatchard transformation, mCHT expressing membranes, read-out: equilibrium dissociation constant (Kd) of [3H]HC-3 binding) was 5 nM and the Ki (mCHT [3]) was 5 nM.

For `C[N+](C)(C)CCO` [choline], the Ki (hCHT [2]) was 123 nM and the IC50 (mCHT [4]) was 123 nM.

B1: mCHT (Mus musculus; Q119K/Q86H) (protein)
chain: MPFHVEGLVAIILFYLLIFLVGIWAAWKTKNSGNPEERSEAIIVGGRDIGLLVGGFTMTATWVGGGYINGTAEAVYGPGCGLAWAHAPIGYSLSLILGGLFFAKPMRSKGYVTMLDPFKQIYGKRMGGLLFIPALMGEMFWAAAIFSALGATISVIIDVDVNISVIVSALIAILYTLVGGLYSVAYTDVVQLFCIFIGLWISVPFALSHPAVTDIGFTAVHAKYQSPWLGTIESVEVYTWLDNFLLLMLGGIPWQAYFQRVLSSSSATYAQVLSFLAAFGCLVMALPAICIGAIGASTDWNQTAYGYPDPKTKEEADMILPIVLQYLCPVYISFFGLGAVSAAVMSSADSSILSASSMFARNIYQLSFRQNASDKEIVWVMRITVLVFGASATAMALLTKTVYGLWYLSSDLVYIIIFPQLLCVLFIKGTNTYGAVAGYIFGLFLRITGGEPYLYLQPLIFYPGYYSDKNGIYNQRFPFKTLSMVTSFFTNICVSYLAKYLFESGTLPPKLDVFDAVVARHSEENMDKTILVRNENIKLNELAPVKPRQSLTLSSTFTNKEALLDVDSSPEGSGTEDNLQ
In the case of B1, the Km ([5]; other: Eadie-Hofstee plot, single site, mCHT vesicles) is reported as 2 µM.

B2: hCHT (Homo sapiens) (protein)
chain: MAFHVEGLIAIIVFYLLILLVGIWAAWRTKNSGSAEERSEAIIVGGRDIGLLVGGFTMTATWVGGGYINGTAEAVYVPGYGLAWAQAPIGYSLSLILGGLFFAKPMRSKGYVTMLDPFQQIYGKRMGGLLFIPALMGEMFWAAAIFSALGATISVIIDVDMHISVIISALIATLYTLVGGLYSVAYTDVVQLFCIFVGLWISVPFALSHPAVADIGFTAVHAKYQKPWLGTVDSSEVYSWLDSFLLLMLGGIPWQAYFQRVLSSSSATYAQVLSFLAAFGCLVMAIPAILIGAIGASTDWNQTAYGLPDPKTTEEADMILPIVLQYLCPVYISFFGLGAVSAAVMSSADSSILSASSMFARNIYQLSFRQNASDKEIVWVMRITVFVFGASATAMALLTKTVYGLWYLSSDLVYIVIFPQLLCVLFVKGTNTYGAVAGYVSGLFLRITGGEPYLYLQPLIFYPGYYPDDNGIYNQKFPFKTLAMVTSFLTNICISYLAKYLFESGTLPPKLDVFDAVVARHSEENMDKTILVKNENIKLDELALVKPRQSMTLSSTFTNKEAFLDVDSSPEGSGTEDNLQ
In the case of B2, the Km ([5]; other: resealed membrane vesicles, hCHT) is reported as 1.6 µM.
